28 compounds from ChEMBL document CHEMBL4706660, “Structure-Activity Relationship and Biological Investigation of SR18292 (16), a Suppressor of Glucagon-Induced Glucose Production” (J Med Chem, 2021) can be followed below.

For assay [1], the target named is Beta-2 adrenergic receptor (Homo sapiens, UniProt P07550). Kind of assay: Binding affinity to beta2 adrenoceptor (unknown origin).
In assay [2] the target is T1, 5-hydroxytryptamine receptor 1A (Homo sapiens, UniProt P08908).
T1 sequence (P08908 whole entry): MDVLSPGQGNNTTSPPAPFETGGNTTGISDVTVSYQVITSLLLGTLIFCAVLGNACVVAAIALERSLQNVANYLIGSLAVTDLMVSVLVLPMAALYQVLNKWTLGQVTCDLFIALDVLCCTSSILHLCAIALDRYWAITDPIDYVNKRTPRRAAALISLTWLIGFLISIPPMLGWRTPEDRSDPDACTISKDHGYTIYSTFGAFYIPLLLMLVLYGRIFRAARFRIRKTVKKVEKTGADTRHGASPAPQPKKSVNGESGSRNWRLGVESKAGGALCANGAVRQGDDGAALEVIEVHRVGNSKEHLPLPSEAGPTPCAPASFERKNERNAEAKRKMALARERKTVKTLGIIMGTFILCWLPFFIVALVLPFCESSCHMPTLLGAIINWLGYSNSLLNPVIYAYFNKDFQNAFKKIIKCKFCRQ
Kind of assay: Binding affinity to 5HT1A receptor (unknown origin).

Assay [3] in a line: Inhibition of glucagon-induced glucose secretion in C57BL/6 mouse primary hepatocytes at 1 uM. It counts as functional. To be noted: C57BL/6, Hepatocyte.
Assay [4] in a line: Inhibition of NE-induced lipolysis in adipocytes (unknown origin) assessed as reduction in glycerol release at 1 uM pre-incubated for 30 mins before NE stimulation for 90 mins by glycerol reagent based assay relative to control. It counts as functional, Adipocyte. As to conditions: 2 h.
Assay [5] concerns Mus musculus. As to the kind of experiment: In-vivo antagonist activity at beta-adrenergic receptor in fasted and HFD fed mouse assessed as inhibition of hormone-sensitive lipase phosphorylation in epididymal white adipose tissue at 50 mg/kg. The class given is functional, organism-based.
Assay [6] relates to Mus musculus. Kind of assay: In-vivo antagonist activity at beta-adrenergic receptor in fasted and HFD fed mouse assessed as increase in accumulation of liver glycogen at 50 mg/kg. The class given is functional, organism-based.
Assay [7] deals with Mus musculus. Kind of assay: Suppression of fasting blood glucose in overnight fasted ob/ob mouse 25 mg/kg, ip dosed 3 times and measured 3 hrs after last dose. The class given is functional, organism-based.
The test system of assay [8] is Mus musculus. Kind of assay: In-vivo antagonist activity at beta-adrenergic receptor in fasted ob/ob mouse assessed as increase in accumulation of liver glycogen at 25 mg/kg. The class given is functional, organism-based.
Assay [9] has as its system Mus musculus. Kind of assay: In-vivo antagonist activity at beta-adrenergic receptor in fasted ob/ob mouse assessed as inhibition of hormone-sensitive lipase phosphorylation in brown adipose tissue at 25 mg/kg.
A further assay concerns Adipocyte. Kind of assay: Inhibition of NE-induced lipolysis in adipocytes (unknown origin) assessed as reduction in glycerol release at 1 to 10000 nM pre-incubated for 30 mins before NE stimulation for 90 mins by glycerol reagent based assay relative to control. It counts as functional, cell-based. To be noted: dose 1-10000 nM, time 120.0 min.

Each structure is given as a SMILES string. Activity calls are given as the source filed them. The rule behind the calls is not given here.

Sequence of Beta-2 adrenergic receptor (P07550 whole entry): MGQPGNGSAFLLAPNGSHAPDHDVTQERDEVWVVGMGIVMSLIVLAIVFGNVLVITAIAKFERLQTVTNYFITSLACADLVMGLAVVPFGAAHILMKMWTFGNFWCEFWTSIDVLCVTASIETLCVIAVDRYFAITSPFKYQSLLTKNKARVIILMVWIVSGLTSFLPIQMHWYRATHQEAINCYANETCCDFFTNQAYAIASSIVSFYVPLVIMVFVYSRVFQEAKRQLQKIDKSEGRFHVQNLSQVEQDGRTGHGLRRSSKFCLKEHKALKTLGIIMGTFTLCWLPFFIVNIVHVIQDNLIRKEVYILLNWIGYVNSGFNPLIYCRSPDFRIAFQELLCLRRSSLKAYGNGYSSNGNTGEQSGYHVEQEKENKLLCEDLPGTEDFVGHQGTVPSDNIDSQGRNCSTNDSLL

On to `Cc1ccc(CN(CC(O)COc2cccc3[nH]ccc23)C(C)(C)C)cc1` (stereo unspecified), for which the Ki – broadly, the equilibrium dissociation constant of an inhibitor or competing ligand from its target – in [1] was 1300 nM; in assay [2], 2100 nM. In addition, the inhibition at 1 µM in assay [3] was 57.7%. Besides, the inhibition in [4] (read-out: INH) amounted to 25.8%. In addition, the outcome in the assay with Mus musculus [5], in the assay with Mus musculus [6], in the assay on Mus musculus [8] and with Mus musculus [9] was inactive. For the same compound, in the assay on Mus musculus [7], the result was Active.

In the case of `COC(COc1cccc2[nH]ccc12)CN(CC1CCCC1)C(C)(C)C` (stereo unspecified), the inhibition at 1 µM in assay [3] was found to be 66.4%. Besides, the inhibition in assay [4] (read-out: INH) turned out to be 1%.

Take `Cc1ccc(CNCC(O)COc2cccc3[nH]ccc23)cc1` (stereo unspecified): the inhibition at 1 µM in assay [3] was 34.5%. In [4] (read-out: INH), the inhibition was determined as 40.6%.

`Cc1ccc(CN(CC(O)CNc2ccc3[nH]ccc3c2)C(C)(C)C)cc1` (stereo unspecified): in assay [3], the inhibition at 1 µM worked out at 28.2%. Besides, the inhibition in [4] (read-out: INH) came to 2.24%.

Take `Cc1ccc(CN(CC(O)COc2ccc3[nH]ccc3c2)C(C)(C)C)cc1` (stereo unspecified): the inhibition at 1 µM in [3] was determined as 50.7%. The inhibition in [4] (read-out: INH) amounted to 48.5%.

Consider `Cc1ccc(CN(CC(O)COc2cccc3c2ccn3C)C(C)(C)C)cc1` (stereo unspecified), for which the inhibition at 1 µM in [3] worked out at 47.7%. Moreover, the inhibition in assay [4] (read-out: INH) was determined as 36.7%.

Turning to `Cc1ccc(CN(CCCOc2cccc3[nH]ccc23)C(C)(C)C)cc1`, in assay [3], the inhibition at 1 µM amounted to 28.3%. The inhibition in [4] (read-out: INH) was found to be 9.91%.

Regarding `Cc1ccc(CN(CC(O)COc2ccccc2)C(C)(C)C)cc1` (stereo unspecified), the inhibition at 1 µM in [3] was determined as 32.3%. The inhibition in [4] (read-out: INH) was 21.7%.

Consider `CC(C)(C)N(Cc1ccc(F)cc1)CC(O)COc1cccc2[nH]ccc12` (stereo unspecified), for which, in assay [3], the inhibition at 1 µM stood at 52.2%. Besides, the inhibition in assay [4] (read-out: INH) amounted to 55.3%.

Consider `Cc1ccccc1CN(CC(O)COc1cccc2[nH]ccc12)C(C)(C)C` (stereo unspecified), for which, in [3], the inhibition at 1 µM came out at 46%. The inhibition in assay [4] (read-out: INH) is 35.6%.

With `COc1ccc(CN(CC(O)COc2cccc3[nH]ccc23)C(C)(C)C)cc1` (stereo unspecified), in [3], the inhibition at 1 µM came to 30.1%. Also, the inhibition in [4] (read-out: INH) came out at 58.3%.

On to `Cc1ccc(CN(CC(O)CNc2cccc3cc[nH]c23)C(C)(C)C)cc1` (stereo unspecified), for which the inhibition at 1 µM in assay [3] was determined as 35.1%. Also, the inhibition in assay [4] (read-out: INH) is 13.2%.

Turning to `COC(COc1cccc2[nH]ccc12)CN(Cc1ccccc1C)C(C)(C)C` (stereo unspecified), in [3], the inhibition at 1 µM worked out at 22.7%. The inhibition in assay [4] (read-out: INH) was 14.6%.

On to `CC(C)(C)c1ccc(CN(CC(O)COc2cccc3[nH]ccc23)C(C)(C)C)cc1` (stereo unspecified), for which the inhibition at 1 µM in [3] turned out to be 47.3%. In [4] (read-out: INH), the inhibition amounted to 11.3%. The inhibition result in the assay on Adipocyte is “inactive”. The result in the assay with Mus musculus [7] was Active. The outcome with Mus musculus [8] and with Mus musculus [9] was inactive.

`COC(COc1cccc2c1ccn2C)CN(Cc1ccc(C)cc1)C(C)(C)C` (stereo unspecified): the inhibition at 1 µM in assay [3] came to 56.8%. The inhibition in assay [4] (read-out: INH) was found to be 3.22%.

For `Cc1ccc(CN(CC(O)COc2ccncc2)C(C)(C)C)cc1` (stereo unspecified), the inhibition at 1 µM in assay [3] came to 41.4%. In addition, the inhibition in assay [4] (read-out: INH) was determined as 31.5%.

Regarding `Cc1ccc(CN(CC(O)COc2cccc3[nH]ccc23)C2CC2)cc1` (stereo unspecified), in assay [3], the inhibition at 1 µM is 37.8%. For the same compound, the inhibition in assay [4] (read-out: INH) was 11.6%.

In the case of `Cc1ccc(CN(CC(O)COc2cccc3ccccc23)C(C)(C)C)cc1` (stereo unspecified), the inhibition at 1 µM in [3] is -2.73%. Moreover, the inhibition in assay [4] (read-out: INH) was determined as 10.4%.

Turning to `CC(C)(C)N(CC(O)COc1cccc2[nH]ccc12)CC1CCCC1` (stereo unspecified), in [3], the inhibition at 1 µM was determined as 48.5%. The inhibition in assay [4] (read-out: INH) was determined as 51.3%.

In the case of `CC(C)NCC(O)COc1cccc2ccccc12` (stereo unspecified) [PROPRANOLOL], the inhibition in [4] amounted to 92.4%.

In the case of `CN(C)c1ccc(CN(CC(O)COc2cccc3[nH]ccc23)C(C)(C)C)cc1` (stereo unspecified), the inhibition at 1 µM in assay [3] stood at 35.3%. Also, the inhibition in [4] (read-out: INH) came out at 65.2%.

For the compound `Cc1ccc(CN(CC(O)COc2cccc(C)c2)C(C)(C)C)cc1` (stereo unspecified), the inhibition at 1 µM in assay [3] was found to be 31.5%. The inhibition in assay [4] (read-out: INH) turned out to be 13.1%.

In the case of `COC(COc1cccc2[nH]ccc12)CN(Cc1ccc(C)cc1)C(C)(C)C` (stereo unspecified), in [3], the inhibition at 1 µM was determined as 135%. In addition, in [4] (read-out: INH), the inhibition was -8.5%.

For the compound `CC(C)(C)N(Cc1ccc(C#N)cc1)CC(O)COc1cccc2[nH]ccc12` (stereo unspecified), the inhibition at 1 µM in assay [3] was determined as 49.3%. In addition, the inhibition in [4] (read-out: INH) amounted to 53.7%.

As for `Cc1cccc(CN(CC(O)COc2cccc3[nH]ccc23)C(C)(C)C)c1` (stereo unspecified), in assay [3], the inhibition at 1 µM was 62.6%. The inhibition in [4] (read-out: INH) stood at 40.4%.

With `CC(C)(C)NCC(O)COc1cccc2[nH]ccc12` (stereo unspecified), the inhibition at 1 µM in [3] turned out to be 53%. The inhibition in [4] (read-out: INH) is 73.2%.

Regarding `Cc1ccc(CN(CC(O)COc2cccc3[nH]ccc23)C(C)C)cc1` (stereo unspecified), the inhibition at 1 µM in assay [3] turned out to be 59.5%. The inhibition in assay [4] (read-out: INH) was determined as 51.6%.

For `CC(=O)Nc1cccc(OCC(O)CN(Cc2ccc(C)cc2)C(C)(C)C)c1` (stereo unspecified), in assay [3], the inhibition at 1 µM is 35.9%. In addition, the inhibition in assay [4] (read-out: INH) came out at 12.3%.
